Measurements published in paper PMC11353420, “Anti-Inflammatory, Cytotoxic, and Genotoxic Effects of Soybean Oligopeptides Conjugated with Mannose” (Foods, 2024).

Legend:
RAW 264.7 cells = assay: Cell viability (SRB) of RAW 264.7 in the presence of LPS; format: cell-based, murine; conditions: up to 400 µg/mL, LPS 1 µg/mL, 24 h
[1] = system: Salmonella typhimurium strain TA98; assay: Salmonella mutation assay (Ames test), TA98; format: cell-based
Procedure: (§1) Overnight bacterial cultures were mixed with various doses of test compounds with (+S9) or without (−S9) and incubated at 37 °C for 20 min. The top agar was added and then poured onto a plate of minimal glucose agar. The plates were incubated at 37 °C for 48 h. The number of revertant colonies was counted and the mutagenic index (MI) was calculated. 2-aminoanthracene (2-AA) and 2-(2-furyl)-3-(5-nitro-2-furyl)-acrylamide (AF-2) were used as positive mutagens in the presence and absence of S9.

[2] = SRB cytotoxicity assay, PBMCs; format: cell-based, human; conditions: human, peripheral blood mononuclear cells (PBMCs); PBMCs, 800 µg/mL; read-out: % Cell Viability (n = 5)
Source text: (§2) As described by […] et al., human peripheral blood mononuclear cells (PBMCs) and red blood cells (RBCs) were isolated from human blood samples [41]. Human blood samples of healthy subjects obtained from Maharaj Hospital, Chiang Mai, Thailand, were anonymized and kept in a heparinized tube by the laboratory. RBCs were collected and used to determined hemolysis induction by a hemolysis assay. Ficoll-Hypaque solution was used to isolate PBMCs, as described in the manufacturer's instructions. A certificate of exemption by the Research Ethics Committee of the Faculty of Medicine, Chiang Mai University (No. EXEMPTION 8989/2022), was granted. Consent to participate was not applicable as all data were anonymized. All methods were carried out in accordance with relevant guidelines and regulations.

[3] = system: human peripheral blood mononuclear cells (PBMCs); assay: SRB cytotoxicity assay, PBMCs; format: cell-based; conditions: up to 800 µg/mL
Source text: as §2

[4] = SRB cytotoxicity assay, 3T3-L1 pre-adipocyte; format: cell-based, murine; conditions: mouse, 3T3-L1 pre-adipocytes; 3T3-L1 Pre-adipocyte, 48 h, SRB
Source text: (§3) HEK293 (Human embryonic kidney cell line), HepG2 (Human liver carcinoma cell line), LX-2 (Human hepatic stellate cell line), and 3T3-L1 (Murine preadipocyte cell line) cells were obtained from the American Type Culture Collection (ATCC), Bethesda, MD, USA.

3T3-L1 Pre-adipocyte = assay: SRB cytotoxicity assay, 3T3-L1 pre-adipocyte; format: cell-based, murine; conditions: 48 h
Source text: as §3

[5] = system: Salmonella typhimurium strain TA100; assay: Salmonella mutation assay (Ames test), TA100; format: cell-based
Procedure: as §1

COX-2 = COX-2 protein level by immunoblotting in LPS-treated RAW 264.7; format: cell-based, murine; conditions: 100, 200, 400 µg/mL, LPS 1 µg/mL 24 h
Procedure: RAW 264.7 macrophage cells were pretreated with various concentrations of the oligopeptide and its conjugated forms (100, 200, 400 µg/mL) for an hour and then incubated with LPS (1 µg/mL) for a further 24 h (at 37 °C in a 5% CO2 humidified atmosphere). The cells were then collected to investigate the iNOS and COX-2 protein levels. Cell lysate was prepared to obtain the protein samples. The samples were subjected to 10% sodium dodecyl sulfate polyacrylamide gel electrophoresis (SDS-PAGE). The separated proteins were electrically transferred to a nitrocellulose membrane. The target proteins were probed with specific antibodies, including anti-COX-2 antibody (Cell signaling, Danvers, MA, USA), anti-iNOS antibody (Merck, Rahway, NJ, USA), and anti-β-actin antibody (Sigma, St. Louis, MO, USA). Protein detection was performed using a chemiluminescence reagent (Bio-Rad Laboratories, Watford, UK).

[6] = system: NO production in LPS-treated RAW 264.7 macrophages; assay: LPS-induced nitric oxide (NO)/nitrite production, Griess reaction; format: cell-based, murine; conditions: 100, 200, 400 µg/mL pretreatment 1 h, LPS 1 µg/mL 24 h
Procedure: To screen the anti-inflammation ability of the compounds, the nitrite level in the cultured medium of the treated cells was determined by the Griess reaction. RAW 264.7 macrophage cells were pretreated with various concentrations of the oligopeptide and its conjugated forms (100, 200, 400 µg/mL) for an hour and then incubated with LPS (1 µg/mL) for further 24 h at 37 °C in a 5% CO2 humidified atmosphere. The culture supernatant was collected for the Griess reagent assay as previous described. The NO production was calculated by comparison with LPS-treated controls.

IL-6 = IL-6 secretion by ELISA in LPS-treated RAW 264.7; format: cell-based, murine; conditions: 100, 200, 400 µg/mL, LPS 1 µg/mL 24 h
Procedure: RAW 264.7 macrophage cells were pretreated with various concentrations of the oligopeptide and its conjugated forms (100, 200, 400 µg/mL) for an hour and then incubated with LPS (1 µg/mL) for further 24 h at 37 °C in a 5% CO2 humidified atmosphere. Then, a sandwich Enzyme Link Immuno-Sorbent Assay was carried out in accordance with the manufacturer’s protocols (BioLegend ELISA MAXTM Deluxe Set, San Diego, CA, USA) to measure TNF-α or IL-6 protein levels in the condition medium.

## OC[C@H]1OC(O)[C@@H](O)[C@@H](O)[C@@H]1O (stereo partly drawn) [Man, D-mannose]
RAW 264.7 cells
  cell viability of RAW 264.7 cells in the presence of LPS: did not change
[1]; TA98, +S9, 0.04 mg per plate
  His^+ Revertant Colonies per Plate: 37.7 ± 5.7
[1]; TA98, +S9, 0.2 mg per plate
  His^+ Revertant Colonies per Plate: 37.8 ± 3.8
[1]; TA98, +S9, 1 mg per plate
  His^+ Revertant Colonies per Plate: 36.5 ± 7.5
[1]; TA98, +S9, 5 mg per plate
  His^+ Revertant Colonies per Plate: 38.5 ± 7.8
[1]; TA98, presence and absence of the S9 mix
  mutagenicity: did not cause any mutagenicity
[1]; TA98, −S9, 0.04 mg per plate
  His^+ Revertant Colonies per Plate: 30.5 ± 2.5
[1]; TA98, −S9, 0.2 mg per plate
  His^+ Revertant Colonies per Plate: 30.8 ± 4.8
[1]; TA98, −S9, 1 mg per plate
  His^+ Revertant Colonies per Plate: 27.8 ± 6.5
[1]; TA98, −S9, 5 mg per plate
  His^+ Revertant Colonies per Plate: 28.7 ± 6.0
[2]
  viability at 48 h, 800 µg/mL: 106 ± 13.3%
[3]
  toxic effects to hPBMCs: did not show any toxic effects
[4]
  IC20 at 48 h: > 1000 µg/mL
3T3-L1 Pre-adipocyte; Mus musculus, 3T3-L1 Pre-adipocyte, SRB, read-out: IC50
  IC50: > 1000 µg/mL
3T3-L1 Pre-adipocyte; pre-3T3-L1, up to 1000 µg/mL
  toxicity to cells: not toxic
[5]; TA100, +S9, 0.04 mg per plate
  His^+ Revertant Colonies per Plate: 127.5 ± 2.5
[5]; TA100, +S9, 0.2 mg per plate
  His^+ Revertant Colonies per Plate: 140.3 ± 2.3
[5]; TA100, +S9, 1 mg per plate
  His^+ Revertant Colonies per Plate: 139.0 ± 0.7
[5]; TA100, +S9, 5 mg per plate
  His^+ Revertant Colonies per Plate: 138.5 ± 4.2
[5]; TA100, presence and absence of the S9 mix
  mutagenicity: did not cause any mutagenicity
[5]; TA100, −S9, 0.04 mg per plate
  His^+ Revertant Colonies per Plate: 135.2 ± 5.2
[5]; TA100, −S9, 0.2 mg per plate
  His^+ Revertant Colonies per Plate: 137.5 ± 4.5
[5]; TA100, −S9, 1 mg per plate
  His^+ Revertant Colonies per Plate: 135.2 ± 4.5
[5]; TA100, −S9, 5 mg per plate
  His^+ Revertant Colonies per Plate: 129.7 ± 4.7
COX-2
  effect on COX-2 protein level: did not affect
[6]
  inhibition of LPS-induced NO production: did not inhibit
IL-6
  effect on level of IL-6: did not alter
